Laboratory results from patent US10745355B2, “Anti-cancer compounds” (THE UNIVERSITY OF SYDNEY, priority 2015, dated 2020).

Experiments:
U87 = experiment: Alamar blue cell viability assay, U87 cells; format: cell-based; conditions: Homo sapiens, U-87 MG; 72 hours of treatment; mean±SEM, three independent experiments
Experimental: (§1) U87 and U251 cell lines were obtained from the European Collection of Cell Cultures (ECACC) through CellBank Australia. U87-EGFRvIII cell line was obtained from their lab of origin (Nishikawa et al., 1994, Proc Natl Acad Sci USA 91: 7727-7731) and tested for EGFR amplification and mutation by immunoblotting and flow cytometry. Cells were cultured in DMEM medium (Invitrogen by Life Technologies, Carlsbad, Calif., USA) supplemented with 10% FBS (Sigma-Aldrich) at 37° C. and 5% CO2. Primary gliomaspheres (RN1, classical; WK1, mesenchymal) were derived from glioblastoma specimens (Day et al., 2013, Cancers 5: 357-371; Day et al., 2013, Cancer Cell 23: 238-248), maintained in StemPro NSC serum-free media supplemented with EGF and FGF (all Life Technologies), and grown on matrigel-coated flasks (Pollard et al., 2009, Cell Stem Cell 4: 568-580).
(§2) Cell viability was determined using Alamar blue assay after 72 hours of treatment (Table 2). EC50 values were calculated using non-linear regression on Graph Pad Prism version 5. c Log P values calculated using ChemBioDraw Software. Results are mean±SEM from three independent experiments performed in triplicates.

U251 = experiment: Alamar blue cell viability assay, U251 cells; format: cell-based; conditions: Homo sapiens, U-251; 72 hours of treatment; mean±SEM, three independent experiments
Experimental: as §1, §2

ALK = ALK (Homo sapiens, UniProt Q9UM73); experiment: Kinase profiling (ProQinase 33PanQinase Activity Assay), ALK; format: biochemical; conditions: read-out: residual activity, ALK
Chain of ALK (Q9UM73 19-1620): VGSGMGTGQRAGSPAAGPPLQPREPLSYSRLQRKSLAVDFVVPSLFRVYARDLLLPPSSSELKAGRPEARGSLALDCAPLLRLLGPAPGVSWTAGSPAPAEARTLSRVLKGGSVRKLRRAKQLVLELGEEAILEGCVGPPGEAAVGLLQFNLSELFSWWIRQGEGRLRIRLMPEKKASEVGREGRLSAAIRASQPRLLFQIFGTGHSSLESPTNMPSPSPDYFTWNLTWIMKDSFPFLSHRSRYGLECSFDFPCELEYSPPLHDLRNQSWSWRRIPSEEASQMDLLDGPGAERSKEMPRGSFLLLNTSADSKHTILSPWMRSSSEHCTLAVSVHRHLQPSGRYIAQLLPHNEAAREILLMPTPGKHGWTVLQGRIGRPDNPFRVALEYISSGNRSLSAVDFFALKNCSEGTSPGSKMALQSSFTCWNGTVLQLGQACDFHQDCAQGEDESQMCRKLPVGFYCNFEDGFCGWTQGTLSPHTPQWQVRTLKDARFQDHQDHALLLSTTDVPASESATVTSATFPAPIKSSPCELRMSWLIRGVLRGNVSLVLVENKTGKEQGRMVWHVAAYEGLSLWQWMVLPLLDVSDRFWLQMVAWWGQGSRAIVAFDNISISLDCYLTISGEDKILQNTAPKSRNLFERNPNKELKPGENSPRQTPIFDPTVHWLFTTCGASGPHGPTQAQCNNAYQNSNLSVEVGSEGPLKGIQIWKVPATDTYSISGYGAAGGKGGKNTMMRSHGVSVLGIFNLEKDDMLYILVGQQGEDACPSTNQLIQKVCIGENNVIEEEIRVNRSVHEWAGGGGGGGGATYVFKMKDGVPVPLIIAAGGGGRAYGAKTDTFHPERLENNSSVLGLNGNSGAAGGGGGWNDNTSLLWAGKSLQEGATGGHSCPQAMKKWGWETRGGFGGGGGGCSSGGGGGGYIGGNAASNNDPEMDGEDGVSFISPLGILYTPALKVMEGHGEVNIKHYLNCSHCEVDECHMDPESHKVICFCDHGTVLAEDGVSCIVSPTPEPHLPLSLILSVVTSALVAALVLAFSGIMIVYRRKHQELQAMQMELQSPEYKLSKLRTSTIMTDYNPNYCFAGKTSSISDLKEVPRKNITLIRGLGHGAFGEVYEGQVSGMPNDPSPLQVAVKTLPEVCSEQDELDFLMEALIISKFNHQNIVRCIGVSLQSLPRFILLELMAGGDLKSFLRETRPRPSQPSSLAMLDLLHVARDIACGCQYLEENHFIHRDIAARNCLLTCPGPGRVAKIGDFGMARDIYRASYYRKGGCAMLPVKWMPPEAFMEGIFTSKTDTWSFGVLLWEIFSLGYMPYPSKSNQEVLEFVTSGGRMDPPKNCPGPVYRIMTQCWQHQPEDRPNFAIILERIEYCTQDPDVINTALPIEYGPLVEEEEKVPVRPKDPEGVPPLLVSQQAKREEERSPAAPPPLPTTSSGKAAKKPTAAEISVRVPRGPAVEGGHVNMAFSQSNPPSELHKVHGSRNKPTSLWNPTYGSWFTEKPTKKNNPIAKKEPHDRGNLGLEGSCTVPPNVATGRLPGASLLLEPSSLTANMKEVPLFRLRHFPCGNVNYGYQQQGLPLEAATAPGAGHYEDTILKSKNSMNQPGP
Experimental: (§3) The kinase profiling of compound 1-08 at 10 and 50 μM was performed by ProQinase GmbH (Freiburg, Germany). A radiometric protein kinase assay (^33PanQinase® Activity Assay) and the non-radiometric ADP-Glo™ Assay (Promega, Madison, Wis., USA) were used for measuring kinase activity of 387 protein kinases and 13 lipid kinases, respectively. The results are shown in Table 3 (only the top 10 kinases are listed, and the selectivity score describes the portion of kinases inhibited more than 50% in relation to all tested kinases).

BRK = BRK (Homo sapiens, UniProt Q13882); experiment: Kinase profiling (ProQinase 33PanQinase Activity Assay), BRK; format: biochemical; conditions: read-out: residual activity, BRK
Chain of BRK (Q13882 whole entry): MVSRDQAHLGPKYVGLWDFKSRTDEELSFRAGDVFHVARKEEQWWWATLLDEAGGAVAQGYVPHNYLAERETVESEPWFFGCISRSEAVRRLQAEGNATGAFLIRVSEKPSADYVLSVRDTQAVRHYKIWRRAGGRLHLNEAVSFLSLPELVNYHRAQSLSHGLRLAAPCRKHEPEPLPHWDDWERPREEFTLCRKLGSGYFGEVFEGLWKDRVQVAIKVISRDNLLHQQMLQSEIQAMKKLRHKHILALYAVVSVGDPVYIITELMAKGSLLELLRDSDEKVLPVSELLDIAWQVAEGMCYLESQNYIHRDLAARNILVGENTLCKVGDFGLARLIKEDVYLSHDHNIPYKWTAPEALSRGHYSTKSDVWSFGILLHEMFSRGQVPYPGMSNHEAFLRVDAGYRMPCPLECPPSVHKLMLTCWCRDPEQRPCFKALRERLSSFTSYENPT
Experimental: as §3

CSK = CSK (Homo sapiens, UniProt P41240); experiment: Kinase profiling (ProQinase 33PanQinase Activity Assay), CSK; format: biochemical; conditions: read-out: residual activity, CSK
Chain of CSK (P41240 whole entry): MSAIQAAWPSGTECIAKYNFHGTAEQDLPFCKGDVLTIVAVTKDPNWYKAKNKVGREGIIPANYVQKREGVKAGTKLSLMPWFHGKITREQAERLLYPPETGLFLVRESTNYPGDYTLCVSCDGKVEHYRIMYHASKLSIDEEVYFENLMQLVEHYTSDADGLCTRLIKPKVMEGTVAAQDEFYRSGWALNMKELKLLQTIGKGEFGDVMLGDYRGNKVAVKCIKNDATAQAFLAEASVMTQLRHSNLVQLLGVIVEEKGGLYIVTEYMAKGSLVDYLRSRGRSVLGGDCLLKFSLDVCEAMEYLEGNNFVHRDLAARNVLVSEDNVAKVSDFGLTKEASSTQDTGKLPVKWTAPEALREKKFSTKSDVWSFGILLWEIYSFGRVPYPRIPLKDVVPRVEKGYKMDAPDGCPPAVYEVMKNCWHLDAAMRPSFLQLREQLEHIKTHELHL
Experimental: as §3

[1] = test system: 387 protein kinases and 13 lipid kinases; experiment: Kinase profiling, selectivity score over the whole panel; format: biochemical
Experimental: as §3

U87 glioblastoma cells = experiment: Immunofluorescence staining of β-tubulin in treated U87 cells (microtubules, multinucleated cells, mitotic spindle); format: cell-based
Experimental: FIGS. 10A-10D. […] (10A) Compound 1-08 inhibits tubulin polymerisation in vitro. Data are expressed as mean from at least 3 independent experiments; each data point was performed in triplicates. (10B) U87 cells treated with compound 1-08 (24 h) were stained with Alexa488-labelled anti-β-tubulin antibody (green) or DAPI (blue). Treatment profoundly disturbed the microtubule network and caused formation of multinucleated cell (white arrows). White scale bar represents 50 μm. Multinucleated cells were manually counted and at least 200 cells were counted for each sample. Data in the bar graph (10C) are expressed as mean±SEM (n=3; * P<0.05, *** P<0.001; 1-way ANOVA followed by Newman-Keuls posttest). (10D) U87 cells were treated with compound 1-08 (48 h), tubulin and DNA were stained as in (10B). Treatment with 1-08 caused defective mitotic spindle formation. Representative images from 3 independent experiments are shown. White scale bar represents 2 μm.
The effect of compound 1-08 on tubulin polymerisation and mitotic spindle formation was also investigated. The fluorescence-based tubulin polymerisation assay was conducted in the final volume of 55 μL using the Tubulin Polymerisation Assay kit (Cytoskeleton, Colo., USA) as per the manufacturer's instructions. Porcine brain tubulin was incubated with test compounds (paclitaxel, vinblastine and compound 1-08) at 37° C. and fluorescence was measured using FLUOstar Omega microplate reader (BMG Labtech, Ortenberg, Germany; excitation at 355 nm and emission at 460 nm). […] To test whether compound 1-08 alters microtubules in vivo, U87 glioblastoma cells were treated with compound 1-08 and the effect on the microtubules was determined by immunofluorescence staining of β-tubulin. […] The consequence of microtubule depolymerisation induced by compound 13 was disrupted spindle assembly (FIG. 10D). In untreated U87 cells undergoing mitosis, microtubules are assembled into bipolar spindles (control images).

[2] = test system: WK1 gliomaspheres (mesenchymal); experiment: AlamarBlue cell viability assay, WK1 gliomaspheres; format: cell-based; conditions: 72 h of drug treatment, FIG. 11B
Experimental: FIGS. 11A-11B. Efficacy of SC-38 (referred to as “CMPD1”), compound 1-08 (referred to as “cmpd 13”), compound 1-18 (referred to as “cmpd 7”), and compound 1-38 (referred to as “cmpd 10”) in primary gliomaspheres representing two glioblastoma subtypes. (11A) RN1, classical, and (11B) WK1, mesenchymal. Cellular efficacy (EC50) of test compounds was determined using AlamarBlue cell viability assay after 72 h of drug treatment. Data are mean±SEM from 3 independent experiments performed in triplicate.
as §1
The effect of SC-38, and compounds 1-08, 1-18 and 1-38 in a cell viability assay employing patient-derived gliomaspheres was also investigated. RN1 gliomaspheres representing glioblastoma of the classical subtype were most responsive to the treatment (FIG. 11, where SC-38 is referred to as “CMPD1”, compound 1-08 is referred to as “compound 13”, compound 1-18 is referred to as “compound 7”, and compound 1-38 is referred to as “compound 10”).

Work on `O=C(CCCc1ccc(-c2cnc3ccccc3c2)cc1)Nc1ccc(O)cc1` [Compound 1-08, N-(4-hydroxyphenyl)-4-(4-(quinolin-3-yl)phenyl)butanamide] yielded an EC50 (U87) of 650 ± 300 nM, an EC50 (U251) of 980 ± 200 nM and a remaining activity at 10 µM (ALK; 10 μM compound) of 76%. For the same compound, the remaining activity at 50 µM (ALK; 50 μM compound) was 21%, the remaining activity at 10 µM (BRK; 10 μM compound) was 74% and the remaining activity at 50 µM (BRK; 50 μM compound) was 29%. For the same compound, the remaining activity at 10 µM (CSK; 10 μM compound) was 89%, the remaining activity at 50 µM (CSK; 50 μM compound) was 21% and the “Selectivity score (portion of kinases inhibited more than 50% in relation to all tested kinases)” value ([1]; 10 μM compound) was 0.003. The “Selectivity score (portion of kinases inhibited more than 50% in relation to all tested kinases)” value ([1]; 50 μM compound) was 0.203, the effect on microtubules (U87 glioblastoma cells; 1 and 5 μM, FIG. 10B) was “disassembly of microtubules” and the “number of multinucleated cells” value (U87 glioblastoma cells; 1 and 5 μM, FIGS. 10B and 10C) was “dose-dependent increase in the number of multinucleated cells”. For the same compound, the mitotic spindle formation (U87 glioblastoma cells; 48 h, FIG. 10D) was “defective spindle formation and chromosome misalignment” and the EC50 [2] was 3820 nM.
